Test results reported in ChEMBL document CHEMBL4673331 (J Med Chem, 2020).
≈ marks a conversion by molar mass, not a printed value. Calls of active or inactive are those of the source. No cut-off for these calls is given here.

Legend:
[1] = Dose normalized Cmax in Balb/c mouse at 3 mg/kg, po administered as cassette dosing; type: ADME, organism-based; settings: in vivo
BJAB = assay: Antiproliferative activity against human BJAB cells assessed as assessed as reduction in colony formation at 19.5 to 10000 nM incubated for 14 days by soft-agar assay; type: functional, cell-based; settings: dose 19.5-10000 nM, time 14.0 day
Mus musculus [2] = assay: Anti-autoimmune disease activity in Balb/c mouse assessed as reduction in anti-DNP induced IgM producing B cells at 30 mg/kg, po administered twice at 12 hrs interval immunized post 1 hr first treatment measured after 8 days by ELISA relative to control; type: functional; parameters: scale not given: the % may be the effect or the level left; settings: time 8 day
[3] = Drug concentration in Balb/c mouse blood at 100 mg/kg, po BID administered at 12 hrs interval immunized post 1 hr first treatment measured after 12 hrs post second dose by LC-MS/MS analysis; type: ADME, organism-based; settings: whole blood, read-out: Drug uptake
[4] = target: T1, Mucosa-associated lymphoid tissue lymphoma translocation protein 1 (Homo sapiens) (UniProt Q9UDY8); assay: Allosteric inhibition of MALT1 protease activity in human OCI-LY3 cells assessed as accumulation of uncleaved substrate […] incubated for 24 hrs by Western blot analysis; type: cell-based; settings: OCILY3, filed as negative allosteric modulator, dose 50-5000 nM
T1 sequence (whole entry): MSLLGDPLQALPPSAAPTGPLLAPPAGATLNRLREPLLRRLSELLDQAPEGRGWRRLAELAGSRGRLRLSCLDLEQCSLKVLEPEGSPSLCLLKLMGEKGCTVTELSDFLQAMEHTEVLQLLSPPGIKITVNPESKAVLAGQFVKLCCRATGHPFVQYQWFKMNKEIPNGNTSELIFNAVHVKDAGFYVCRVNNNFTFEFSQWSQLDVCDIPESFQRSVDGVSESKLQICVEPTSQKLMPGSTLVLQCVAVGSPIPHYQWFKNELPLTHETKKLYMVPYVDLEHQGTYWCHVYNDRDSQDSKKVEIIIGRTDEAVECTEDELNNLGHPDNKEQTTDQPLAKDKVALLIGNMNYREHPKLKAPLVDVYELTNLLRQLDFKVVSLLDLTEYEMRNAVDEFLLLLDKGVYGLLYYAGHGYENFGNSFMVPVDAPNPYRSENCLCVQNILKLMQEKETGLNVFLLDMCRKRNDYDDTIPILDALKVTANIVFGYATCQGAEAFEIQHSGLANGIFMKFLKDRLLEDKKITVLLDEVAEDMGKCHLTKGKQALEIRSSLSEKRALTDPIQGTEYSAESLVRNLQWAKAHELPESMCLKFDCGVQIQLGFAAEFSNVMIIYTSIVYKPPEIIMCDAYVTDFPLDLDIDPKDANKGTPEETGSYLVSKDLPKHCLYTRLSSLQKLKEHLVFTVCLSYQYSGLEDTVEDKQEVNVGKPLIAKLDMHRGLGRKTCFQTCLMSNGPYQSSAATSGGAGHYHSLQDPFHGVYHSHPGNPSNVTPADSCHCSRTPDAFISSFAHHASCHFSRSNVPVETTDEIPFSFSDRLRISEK

[5] = Volume of distribution at steady state in Balb/c mouse at 1 mg/kg, iv administered as cassette dosing; type: ADME, organism-based; settings: in vivo, read-out: Vdss
[6] = target: T1, Mucosa-associated lymphoid tissue lymphoma translocation protein 1 (Homo sapiens); assay: Allosteric inhibition of MALT1 protease activity in human OCI-LY3 cells assessed as accumulation of uncleaved substrate RELB incubated for 24 hrs by Western blot analysis; type: cell-based; settings: OCILY3, filed as negative allosteric modulator, dose 50-5000 nM
[7] = Intrinsic clearance in rat liver microsomes; type: ADME, Microsome; settings: read-out: CLH
[8] = Apparent permeability across apical to basolateral side in human Caco-2 cells; type: ADME, cell-based
[9] = Oral bioavailability in Balb/c mouse at 3 mg/kg administered as cassette dosing; type: ADME, organism-based; settings: in vivo
[10] = Half-life in Sprague-Dawley rat at 1 mg/kg, iv administered as cassette dosing; type: ADME, organism-based; settings: in vivo
[11] = Toxicity in Balb/c mouse assessed as behavioral changes at 10 to 100 mg/kg, po BID administered at 12 hrs interval immunized post 1 hr first treatment; type: organism-based; settings: in vivo, dose 10-100 mg/kg
[12] = Dose normalized Cmax in Sprague-Dawley rat at 3 mg/kg, po administered as cassette dosing; type: ADME, organism-based; settings: in vivo
[13] = Drug concentration in Balb/c mouse blood at 100 mg/kg, po BID by LC-MS/MS analysis; type: ADME, organism-based; settings: in vivo, read-out: Drug uptake
[14] = target: T2, Mucosa-associated lymphoid tissue lymphoma translocation protein 1 (Homo sapiens, UniProt Q9UDY8); assay: Allosteric inhibition of MALT1 in human OCI-LY3 cells assessed as reduction in BCL10 cleavage measured after 24 hrs by ELISA; type: cell-based, OCILY3
T2 sequence (Q9UDY8 whole entry): T1 sequence (whole entry)

[15] = target: T2, Mucosa-associated lymphoid tissue lymphoma translocation protein 1; assay: Allosteric inhibition of MALT1-mediated T cell activation in human Jurkat cells assessed as decrease in PMA induced IL2 activation preincubated for 1 hr followed by addition of PMA measured after 5.5 hrs by luciferase reporter gene assay; type: cell-based
Mus musculus [16] = assay: Anti-autoimmune disease activity in Balb/c mouse assessed as reduction in anti-DNP induced IgG producing B cells at 30 mg/kg, po administered twice at 12 hrs interval immunized post 1 hr first treatment measured after 8 days by ELISA relative to control; type: functional, organism-based; settings: time 8.0 day
[17] = target: Baculoviral IAP repeat-containing protein 3/Mucosa-associated lymphoid tissue lymphoma translocation protein 1 (Homo sapiens, UniProt Q13489+Q9UDY8); assay: Allosteric inhibition of MALT1-cIAP2 (unknown origin) fusion protein expressed in HEK293 cells assessed as reduction in NF-KappaB activation by luciferase reporter gene assay; type: cell-based
[18] = Protein binding in mouse plasma; type: ADME, cell-free; settings: read-out: PPB (converted)
[19] = Drug concentration in Balb/c mouse blood at 10 mg/kg, po BID administered at 12 hrs interval immunized post 1 hr first treatment measured after 12 hrs post second dose by LC-MS/MS analysis; type: ADME, organism-based; settings: whole blood, read-out: Drug uptake
TMD8 = assay: Antitumor activity against human TMD8 cells xenografted in SCID mouse assessed as tumor stasis at 100 mg/kg, po BID administered for 2 weeks; type: functional, organism-based
[20] = Dose normalized AUC (0 to 24 hrs) in Sprague-Dawley rat at 3 mg/kg, po administered as cassette dosing; type: ADME, organism-based; settings: in vivo
[21] = Toxicity in Balb/c mouse assessed as histopathological changes at 10 to 100 mg/kg, po BID administered at 12 hrs interval immunized post 1 hr first treatment; type: organism-based; settings: in vivo, dose 10-100 mg/kg
[22] = Dose normalized AUC (0 to 24 hrs) in Balb/c mouse at 3 mg/kg, po administered as cassette dosing; type: ADME, organism-based; settings: in vivo
[23] = Solubility of the compound at pH 6.8; type: physicochemical; settings: buffer
[24] = Drug concentration in Balb/c mouse blood at 10 mg/kg, po BID by LC-MS/MS analysis; type: ADME, organism-based; settings: in vivo, read-out: Drug uptake
Mus musculus [25] = assay: Immunomodulatory activity in human TMD8 cells xenografted SCID mouse assessed as increase in levels of uncleaved BCL10 in tumor at 100 mg/kg, po; type: functional, organism-based
[26] = Clearance in Sprague-Dawley rat at 1 mg/kg, iv administered as cassette dosing; type: ADME, organism-based; settings: in vivo
[27] = Toxicity in Balb/c mouse assessed as change in body weight at 10 to 100 mg/kg, po BID administered at 12 hrs interval immunized post 1 hr first treatment; type: organism-based; settings: in vivo, dose 10-100 mg/kg
[28] = Protein binding in rat plasma; type: ADME, cell-free; settings: read-out: PPB (converted)

Chain of Baculoviral IAP repeat-containing protein 3/Mucosa-associated lymphoid tissue lymphoma translocation protein 1 (Q13489 whole entry, one chain of several, the tested form may be a part): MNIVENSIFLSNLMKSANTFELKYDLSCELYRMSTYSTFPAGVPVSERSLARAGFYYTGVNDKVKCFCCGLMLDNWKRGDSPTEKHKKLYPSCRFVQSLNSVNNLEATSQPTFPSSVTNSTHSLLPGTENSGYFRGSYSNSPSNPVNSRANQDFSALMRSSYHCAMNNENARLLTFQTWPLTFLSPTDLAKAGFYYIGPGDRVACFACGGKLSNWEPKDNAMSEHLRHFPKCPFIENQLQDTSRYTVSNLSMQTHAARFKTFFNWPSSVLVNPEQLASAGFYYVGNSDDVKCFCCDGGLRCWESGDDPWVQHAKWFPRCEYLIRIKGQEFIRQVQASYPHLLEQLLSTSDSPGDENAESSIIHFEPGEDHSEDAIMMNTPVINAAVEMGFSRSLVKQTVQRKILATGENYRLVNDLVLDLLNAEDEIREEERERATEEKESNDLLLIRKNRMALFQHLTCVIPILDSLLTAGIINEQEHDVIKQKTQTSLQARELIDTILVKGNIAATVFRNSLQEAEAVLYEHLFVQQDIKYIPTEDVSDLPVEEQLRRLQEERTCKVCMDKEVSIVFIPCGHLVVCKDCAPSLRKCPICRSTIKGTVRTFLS

For `C[C@H]1COC[C@H](C)N1c1c(NC(=O)Nc2ccnc(C(F)(F)F)c2)cnc2cc(Cl)nn12`, the Cmax/dose [1] was 549 nM, the Activity (BJAB) was “inactive” and the Activity (Mus musculus [2]) was 25%. For the same compound, the concentration at 12 h [3] was 690 nM, the inhibition [4] was “Dose-dependent effect” and the Vd [5] was 1.5 L/kg. For the same compound, the inhibition [6] was “Dose-dependent effect”, the microsomal CLint [7] was 42 µL/min/mg and the Papp A→B [8] was 1.47 ×10⁻⁶ cm/s. For the same compound, the bioavailability [9] was 99%, the half-life [10] was 3.2 h and the Activity [11] was “Non-Toxic”. It also gave a Cmax/dose [12] of 46 nM, a concentration [13] of 23600 nM and an IC50 [14] of 160 nM. The IC50 [15] was 180 nM, the Activity (Mus musculus [16]) was “Active” and the IC50 [17] was 140 nM. The fraction unbound [18] was 0.011, the concentration at 12 h [19] was 40 nM and the Activity (TMD8) was “Active”. For the same compound, the AUC/dose [20] was 547 nM·h, the Activity [21] was “Non-Toxic” and the AUC/dose [22] was 3100 nM·h. The solubility [23] was 266 µM (≈ 125 µg/mL), the concentration [24] was 2600 nM and the Activity (Mus musculus [25]) was “Active”. The clearance [26] was 41 mL/min/kg, the Activity [27] was “Non-Toxic” and the fraction unbound [28] was 0.013.
